Results on 5 molecules are retold here after paper PMC7077228 (Viruses, 2020).

Each structure is given as a SMILES string. Structures can show the parent of a compound that is named as a salt. Where two headings read alike, the source gives them in different places. A value given as a limit tells only on which side of the number the result lay.

In data set [1] the test system is H5N1 IAV. Format: cell-based, influenza A virus.
The subject of data set [2] is H5N1 IAV. Format: cell-based, influenza A virus. The source holds these as a separate data set.
For data set [3], the system named is H5N1 IAV HA-induced hemolysis. The data set can be described thus: microbe, parasite or virus in culture. In kind it is cell-based. The settings on record: Influenza A virus, H5N1, in Gallus gallus, pH 5.2, read-out: IC50 hemolysis inhibition.
In data set [4] the test system is H5N1 IAV (A/Duck/Guangdong/99). The data set can be described thus: microbe, parasite or virus in culture. Format: cell-based, influenza A virus.
The subject of another data set is A549 cells. Kind of data set: MTT cytotoxicity assay. Particulars: for CC50: MTT, 24 h of compound treatment. (In general: Tetrazolium dyes change colour on reduction, which living cells bring about.)
In data set [5] the test system is H5N1 IAV. Format: cell-based, influenza A virus. The source holds these as a separate data set.
Data set [6] deals with FKBP12 (FK506 binding protein 1A, 12 kDa) (Homo sapiens, UniProt P62942).
Chain of FKBP12 (FK506 binding protein 1A, 12 kDa) (P62942 whole entry): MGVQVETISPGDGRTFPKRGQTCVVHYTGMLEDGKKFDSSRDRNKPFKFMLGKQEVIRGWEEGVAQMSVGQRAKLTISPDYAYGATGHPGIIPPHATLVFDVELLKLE
The target in data set [7] is Recombinant influenza HA protein from A/Vietnam/1203/2004 (H5N1) (Influenza A virus (A/Vietnam/1203/2004(H5N1)), UniProt Q5EP31). Kind of data set: biochemical. Format: binding.
Data set [8] has as its system H9N2 IAV (A/Chicken/Guangdong/16/1996). Kind of data set: microbe, parasite or virus in culture. The settings on record: Influenza A virus, H9N2, A549, in Gallus gallus. In kind it is cell-based.
Data set [9] has as its system A/Duck/Guangdong/99(H5N1) HA. Format: cell-based, influenza A virus.
The subject of data set [10] is H3N2 IAV (A/Guangdong/Dongguan/1100/2006). The data set can be described thus: microbe, parasite or virus in culture. In kind it is cell-based. The settings on record: Influenza A virus, H3N2, A549.
Data set [11] has as its system IAV (H1N1, H5N1, H9N2 and H3N2). The data set can be described thus: microbe, parasite or virus in culture. Format: cell-based, influenza A virus.
The subject of data set [12] is PR8 (H1N1) IAV (A/Puerto Rico/8/34). Kind of data set: microbe, parasite or virus in culture. Particulars: Influenza A virus, A549. Format: cell-based.
Data set [13] deals with H5N1 IAV. In kind it is cell-based, influenza A virus. The source holds these as a separate data set.

For `NC(=O)c1ncn([C@@H]2O[C@H](CO)[C@@H](O)[C@H]2O)n1` [ribavirin, Ribavirin hydrochloride, reference compound], in the data set with H5N1 IAV [1], the “inhibition of viral replication, compound added after 4 hpi” value was “no inhibition”. Further, the “progeny virus yield, post-treatment” value in the data set on H5N1 IAV [2] is on record as “inhibition only in the post-treatment mode”.

As usually defined, the IC50 is the midpoint of a concentration-inhibition curve. With `CCOC(=O)c1c(CSc2ccccc2)n(C)c2cc(Br)c(O)c(CN(C)C)c12` [arbidol, Arbidol hydrochloride, reference compound], in data set [3], the IC50 was 51 µM.

What is called EC50 is the concentration that produces a half-maximal response. The term CC50 denotes the concentration at which the toxic effect on the cells reaches its halfway point. Low readings indicate harm at low concentration, high ones better tolerance by the cells. Regarding `CC1(C)CC[C@]2(C(=O)O)CC[C@]3(C)C(=CC[C@@H]4[C@@]5(C)CC[C@H](O)C(C)(C)[C@@H]5CC[C@]43C)[C@@H]2C1` [OA-0, oleanolic acid], the EC50 was 14.2 ± 1.9 µM in data set [4] and no more than 14.2 µM in data set [4] (Influenza A virus, H5N1, A549). In data set [4], the “SI (selectivity index), ratio of CC50 to EC50” value turned out to be 4.7. The CC50 was 67.4 ± 4.8 µM with A549 cells and no less than 31.1 µM with A549 cells (listed as oleanolic acid).

In the case of `CCC(CC)[C@H](NC(C)=O)[C@@H]1[C@H](O)[C@@H](C(=O)O)C[C@H]1N=C(N)N` [peramivir, Peramivir, reference compound], the “inhibition on IAV infections (positive control)” value with H5N1 IAV [5] was “significant inhibition”. In the data set on H5N1 IAV [2], the “progeny virus yield and NP protein expression, co-treatment” value is given as “more significant inhibition”; the “progeny virus yield, post-treatment” value was “more significant inhibition”.

As usually defined, the Kd is the equilibrium constant for the complex coming apart. On to `CNC(=O)[C@]12CCC(C)(C)C[C@H]1C1=CC[C@@H]3[C@@]4(C)CC[C@H](O[C@@H]5O[C@H](CO)[C@@H](O[C@@H]6O[C@@H](C)[C@H](O)[C@@H](O)[C@H]6O)[C@H](O)[C@H]5O[C@@H]5O[C@@H](C)[C@H](O)[C@@H](O)[C@H]5O)C(C)(C)[C@@H]4CC[C@@]3(C)[C@]1(C)CC2` [OA-10], for which, in the data set on H5N1 IAV [5], the “H5N1 IAV NP RNA levels” value is “significantly inhibited”. Besides, in the data set on H5N1 IAV [5], the “reduction in progeny virus production” value was found to be 1.8 log. The “SI (selectivity index), ratio of CC50 to EC50” value in [4] was greater than 45. The EC50 is 14 ± 2.3 µM in [4] (Influenza A virus, H5N1, A549); 15.3 ± 2.5 µM in data set [8]; 19.6 ± 3.7 µM in data set [10]; 6.7 to 19.6 µM in [11] (Influenza A virus, H1N1|H3N2|H5N1|H9N2, A549, read-out: EC50 range across IAV subtypes); 6.7 ± 1.4 µM in data set [12]. For the same molecule, in [6], the “interaction with negative control protein” value is given as “did not interact”. In [7], the Kd came out at 2.98 pM. Further, the IC50 in [3] came out at 26 µM. Besides, the “effect of combination on progeny virus titer and NP production” value in the data set with H5N1 IAV [2] is recorded as “synergistic effect”. Also, the “progeny virus yield and NP protein expression, co-treatment” value in the data set with H5N1 IAV [2] is reported as “mild but significant reduction”. Moreover, in the data set with H5N1 IAV [2], the “progeny virus yield and viral NP production, pre-treatment” value was “did not reduce progeny virus yield and viral NP production”. Moreover, the “progeny virus yield, post-treatment” value in the data set on H5N1 IAV [2] is given as “one log reduction”. Moreover, the “inhibition of HA adsorption to chicken RBCs” value in [9] was “did not inhibit HA adsorption to chicken RBCs”. Besides, the “inhibition of H5N1 virus adsorption to chicken RBCs” value in [9] (concentrations ≥40 µM) was “partially blocked”. Moreover, in [11], the “progeny virus titer on PR8, H9N2 and H3N2 infection” value is “reduced progeny virus titer”. In addition, the “cytotoxicity at concentrations ≤ 80 µM” value in the data set with A549 cells (after 24, 48 or 72 h of treatment) is “No obvious cytotoxicity”. For the same molecule, the “effect on IAV infection after co-incubation at 4 °C (virus binding)” value in the data set on H5N1 IAV [13] is recorded as “did not affect IAV infection”.
